Data as given in patent US5906920A, “Methods for the detection of ligands for retinoid X receptors” (The Salk Institute for Biological Studies, priority 1995, dated 1999).

Tested on: GST-RXR197-462 interaction with in vitro translated TBP
Assay: GST pull-down RXR-TBP interaction assay in vitro
Assay type: binding, human
Conditions: 1.0 μM 9-cis retinoic acid in all buffers; quantitated by phosphorimaging
Excerpt: GST-RXR197-462 was constructed by PCR amplification of the appropriate sequences from human RXRα. The amplification products were cloned into EcoRI-BamHI digested pGEX2TK. All PCR-derived constructs were verified by sequencing. The plasmid pGEX-TBP was the kind gift of Dr. I. Verma (Salk Institute; see Kerr et al., in Nature 365:412-419 (1993)). Mammalian expression constructs expressing the ligand biding domains of human RXRα, human RARα and human TRβ have been described elsewhere (Forman et al., Cell 81:541-550 (1995)).
GST-fusion proteins were induced, solubilized and bound to glutathione beads following the manufacturer's procedures (LKB-Pharmacia). After binding to glutathione beads, 15 μl of the suspension was incubated with 1 to 2 μl of the appropriate ^35 S-labeled in vitro translated protein for 1 hour in 500 μl of NETN (20 mM Tris-HC1, pH 7.5, 100 mM KC1, 0.7 mM EDTA, 0.5% NP40, 1 mM PMSF). Following incubation, the beads were washed three times with NETN. […]
Thus GST pull-down experiments were carried out as follows. TBP was in vitro transcribed and translated as described above, and incubated with equal amounts of immobilized GST-RXR197-462 or GST-RXR-E453K/E456K) as determined by coomassie stained gels. […] Little or no interaction between TBP and GST alone is detected under these conditions.

## CC1=C(/C=C/C(C)=C\C=C\C(C)=C\C(=O)O)C(C)(C)CCC1 [9-cis retinoic acid]
  stimulation of the RXR-TBP interaction in vitro by addition of ligand: 3-5 fold
